Literature values as cited in publication PMC5131319, “Occurrence, temporal trends, and half-lives of perfluoroalkyl acids (PFAAs) in occupational workers in China” (Scientific Reports, 2016).

Conditions: humans; cited from earlier work

For O=S(=O)(O)C(F)(F)C(F)(F)C(F)(F)C(F)(F)F [PFBS, perfluorobutanesulfonate], which “Half-life based on serum concentrations” value is on record?
The value was 26 days.
